Legend:
PfATP6 [1] = molecular target: T1, PfATP6 (Plasmodium falciparum, UniProt Q08853); assay: Yeast whole-cell growth inhibition (functional rescue) assay, K667[PfATP6]; type: cell-based; design: pUGpd containing the yeast-optimized coding region of PfATP6 from Plasmodium falciparum; expressed in transfected cells; host or cells: Saccharomyces cerevisiae K667 and K667Δpdr5::HIS
Description: The screening assay used here was developed from the protocol used by Pulcini et al. ([13]). A single colony of the yeast strain to be screened was picked and grown in 5 mL of selective medium until stationary phase was reached. The culture was diluted 100-fold in ampicillin-supplemented yeast extract-peptone-dextrose (YPD) medium to an OD at 620 nm (OD620) equivalent to that of lag phase. YPD medium was supplemented with an appropriate concentration of calcium, depending on the transformed strain. […] The optimal calcium concentration was periodically monitored and, if necessary, adjusted using a calcium concentration range of 10 to 30 mM. A final volume of 200 μL of the yeast culture was added to each well of a 96-well plate, with 5 technical replicates included per inhibitor. All inhibitors were dissolved in dimethyl sulfoxide (DMSO) unless otherwise stated. […] The 96-well plates were incubated at 30°C for 42 h. The yeast growth was estimated from the absorbance at 620 nm in a Tecan plate reader. Growth was normalized with the no-drug control to present data as percent growth. The data collected were analyzed using GraphPad Prism v9.0 (GraphPad software, San Diego, CA, U.S.A).

PfATP6 [2] = molecular target: T1, PfATP6; assay: In vitro activity assay, PfATP6 (membrane-bound); type: biochemical; design: pUGpd containing the yeast-optimized coding region of PfATP6 from Plasmodium falciparum; expressed in transfected cells; details: 1 μM free calcium
Description: Activity assays were performed as described by Longland et al. ([55]) and LeBel et al. ([56]), except that the reaction mixtures were incubated at 30°C instead of 37°C. […] Then, 5.8 mM ATP was added and incubated for an additional 15 min at 30°C. The reaction was stopped with 0.5 mL 6.5% trichloroacetic acid (TCA) on ice, and the mixture was centrifuged at 4°C for 10 min at 16,000 × g; 0.5 mL of the supernatant was added to 1.5 mL of copper acetate buffer (0.25% copper sulfate pentahydrate, 4.6% sodium acetate trihydrate, dissolved in 2 M acetic acid [pH 4.0]) and mixed by vortex-mixing before the addition of 0.25 mL of 5% ammonium molybdate, followed by 0.25 mL METOL buffer (2% p-methyl-aminophenol sulfate, 5% sodium sulfite). Samples were incubated for 10 min, and the absorbance was measured at 870 nm in a spectrophotometer. The Pi standard was 0.4387 g/100 mL KH2PO4.

T1 sequence (Q08853 whole entry): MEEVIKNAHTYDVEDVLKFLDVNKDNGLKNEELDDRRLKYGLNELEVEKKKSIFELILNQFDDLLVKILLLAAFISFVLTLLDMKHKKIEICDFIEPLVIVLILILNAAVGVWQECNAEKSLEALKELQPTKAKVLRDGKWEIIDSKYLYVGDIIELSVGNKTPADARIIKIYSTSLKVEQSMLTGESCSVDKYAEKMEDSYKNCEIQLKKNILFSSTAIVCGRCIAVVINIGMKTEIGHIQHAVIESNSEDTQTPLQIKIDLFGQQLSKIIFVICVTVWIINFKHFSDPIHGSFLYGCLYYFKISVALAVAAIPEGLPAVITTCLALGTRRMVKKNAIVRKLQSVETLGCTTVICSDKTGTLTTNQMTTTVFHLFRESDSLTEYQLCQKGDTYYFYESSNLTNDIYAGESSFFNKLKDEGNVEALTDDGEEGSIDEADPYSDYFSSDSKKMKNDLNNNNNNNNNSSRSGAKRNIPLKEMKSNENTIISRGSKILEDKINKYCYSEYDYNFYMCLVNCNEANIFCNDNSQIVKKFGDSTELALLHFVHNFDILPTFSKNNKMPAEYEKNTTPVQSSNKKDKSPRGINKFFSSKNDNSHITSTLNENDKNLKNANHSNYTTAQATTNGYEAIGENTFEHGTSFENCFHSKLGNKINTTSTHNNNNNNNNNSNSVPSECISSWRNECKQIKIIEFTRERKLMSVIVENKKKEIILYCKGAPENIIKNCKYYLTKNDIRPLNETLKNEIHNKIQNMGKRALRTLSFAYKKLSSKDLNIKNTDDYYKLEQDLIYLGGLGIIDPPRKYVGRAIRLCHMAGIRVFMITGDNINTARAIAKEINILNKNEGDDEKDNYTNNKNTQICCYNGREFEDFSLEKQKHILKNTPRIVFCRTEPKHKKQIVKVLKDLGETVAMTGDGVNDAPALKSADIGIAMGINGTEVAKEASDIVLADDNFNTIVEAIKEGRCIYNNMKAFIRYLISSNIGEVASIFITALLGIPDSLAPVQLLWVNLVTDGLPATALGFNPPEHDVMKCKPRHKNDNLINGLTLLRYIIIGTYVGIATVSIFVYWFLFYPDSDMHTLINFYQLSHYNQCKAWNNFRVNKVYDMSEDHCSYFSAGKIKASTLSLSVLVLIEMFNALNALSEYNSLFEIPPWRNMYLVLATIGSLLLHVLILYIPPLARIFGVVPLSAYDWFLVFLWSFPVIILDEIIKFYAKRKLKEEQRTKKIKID

In the case of `CC(=O)C1=C(O)[C@@H]2[C@H]3c4c[nH]c5cccc(c45)C[C@H]3C(C)(C)N2C1=O` [CPA, cyclopiazonic acid], the IC50 (PfATP6 [1]) is reported as 11.6 µM and the “in vitro activity of PfATP6 versus no drug control” value (PfATP6 [2]) is reported as “No significant”.

From paper PMC9112895, “Selective Inhibition of Plasmodium falciparum ATPase 6 by Artemisinins and Identification of New Classes of Inhibitors after Expression in Yeast” (Antimicrobial Agents and Chemotherapy, 2022)
